How the values were obtained:
Assay type in all cases: in vivo
[1] = test system: root-knot nematode, Meloidogyne incognita var. acrita; test: Nematocide Test; set-up: key: 1: severe galling, equal to untreated plants; 2: moderate galling; 3: light galling; 4: very light galling; 5: no galling, perfect control; conditions: 3.33 m.g. of test compound per jar; cucumber, approximately 3 weeks
Description: The test organism used was the infective migratory larvae of the root-knot nematode, Meloidogyne incognita var. acrita, reared in the greenhouse on roots of cucumber plants. Infected plants were removed from the culture, and the roots are chopped very finely. A small amount of this inoculum was added to a pint jar containing approximately 180 cc. of soil. The jars were capped and incubated for one week at room temperature. During this period eggs of the nematode were hatched, and the larval forms migrated into the soil.
Ten ml. of the test formulation were added to each of the two jars for each dosage tested. Following the addition of chemical, the jars were capped, and the contents thoroughly mixed on a ball mill for 5 minutes.
The test compounds were formulated by a standard procedure of solution in acetone addition of an emulsifier, and dilution with water. Primary screening tests were conducted at 3.33 m.g. of the test compound per jar.
The jars were left capped at room temperature for a period of 48 hours, and the contents then transferred to 3 inch pots. Subsequently, the pots were seeded to cucumber as an indicator crop and placed in the greenhouse where they were cared for in the normal fashion for approximately 3 weeks.
The cucumber plants were then taken from the pots, the soil removed from the roots, and the amount of galling visually rated.
In the test for activity against nematodes activity was rated as follows: […]

[2] = peroral toxicity to mammals (rat); conditions: in vivo, po, dose required to achieve mortality rate of 50 percent, read-out: A.O. RAT LD50
Description: (§1) Certain of these compositions were also evaluated to determine their peroral toxicity to mammals. The animal selected for this experiment was the rat. The test results obtained are expressed in terms of the number of milligrams of compositions per kilogram of weight of the animal required to achieve a mortality rate of 50 percent (LD50).

[3] = test system: rat; test: peroral toxicity to mammals (rat); conditions: dose required to achieve mortality rate of 50 percent
Description: as §1

Molecule	NEMATODES activity rating (galling) [1]	LD50 [2] [mg/kg]	A.O. RAT LD50 [3] [mg/kg]
CN(SC(C)(C)C(=O)c1ccccc1)C(=O)ON=C1SC(C)(C)C(=O)N1C [2-[[O-[N-methyl-N-(2-benzoyl-2-propanesulfenyl)carbamoyl]oximino]]-3,5,5-trimethylthiazolidin-4-one]	3	–	–
CSC(C)=NOC(=O)N(C)SC(C)(C)C(=O)C(C)C [1-Methylthioacetaldehyde O-[N-methyl-N-(2,4-dimethyl-3-oxo-2-pentanesulfenyl)carbamoyl]oxime]	1	134	–
CSC(C)=NOC(=O)N(C)SSC(C)(C)C(=O)c1ccccc1 [1-Methylthioacetaldehyde O-[N-methyl-N-(2-benzoyl-2-propanethiosulfenyl)carbamoyl]oxime]	–	226	–
1-(2-Cyanoethylthio)acetaldehyde 0-[N-methyl-N-(2,4-dimethyl-3-oxo-2-pentanethiosulfenyl)carbamoyl]oxime	5	–	–
CC(C)C(=O)C(C)(C)SN(C)C(=O)Oc1cccc2c1OC(C)(C)C2 [7-[N-methyl-N-(2,4-dimethyl-3-oxo-2-pentanesulfenyl)carbamoyloxy]-2,2-dimethyl-2,3-dihydrobenzofuran]	–	31	–
CSC(C)=NOC(=O)N(C)SSC(C)(C)C(=O)C(C)C [1-Methylthioacetaldehyde 0-[N-methyl-N-(2,4-dimethyl-3-oxo-2-pentanethiosulfenyl)carbamoyl]oxime]	3	226	–
CC(C)C(=O)C(C)(C)SN(C)C(=O)ON=C1SC(C)(C)C(=O)N1C [2-[O-[N-methyl-(2,4-dimethyl-3-oxo-2-pentanesulfenyl)carbamoyl]oximino]-3,5,5-trimethylthiazolidin-4-one]	–	226	–
CC(=NOC(=O)N(C)SSC(C)(C)C(=O)C(C)C)SC(C)C [1-Isopropylthioacetaldehyde 0-[N-methyl-N-(2,4-dimethyl-3-oxo-2-pentanethiosulfenyl)carbamoyl]oxime]	4	42	–
CC(C)C(=O)C(C)(C)SN(C)C(=O)ON=C(C#N)c1ccccc1 [α-Cyanobenzaldehyde 0-[N-methyl-N-(2,4-dimethyl-3-oxo-2-pentanesulfenyl)carbamoyl]oxime]	3	–	–
CC(C)C(=O)C(C)(C)SN(C)C(=O)ON=C1CSCCS1 [2-[[O-[N-methyl-N-(2,4-dimethyl-3-oxo-2-pentanesulfenyl)carbamoyl]oximino]]-1,4-dithiane]	3	–	–
4-[[0-[N-Methyl-N-(2,4-dimethyl-3-oxo-2-pentanethiosulfenyl)carbamoyl]oximino]]-5-methyl-1,3-oxathiolane	3	–	8
CSC(C)(C)C=NOC(=O)N(C)SC(C)(C)C(=O)C(C)C [2-Methylthio-2-methylpropionaldehyde O-[N-methyl-N-(2,4-dimethyl-3-oxo-2-pentanesulfenyl)carbamoyl]oxmine]	3	–	–
CC(C)C(=O)C(C)(C)SN(C)C(=O)ON=C1SCOC1C (centres unmarked) [4-[[O-[N-methyl-N-(2,4-dimethyl-3-oxo-2-pentanesulfenyl)carbamoyl]oximino]]-5-methyl-1,3-oxathiolane]	–	16	–
CC(=NOC(=O)N(C)SC(C)(C)C(=O)C(C)C)SC(C)C [1Isopropylthioacetaldehyde O-[N-methyl-N-(2,4-dimethyl-3-oxo-2-pentanesulfenyl)carbamoyl]oxime]	3	37	–
CC(C)C(=O)C(C)(C)SN(C)C(=O)ON=CC(C)(C)[N+](=O)[O-] [2-Nitro-2-methylpropionaldehyde O-[N-methyl-N-(2,4-dimethyl-3-oxo-2-pentanesulfenyl)carbamoyl]oxime]	–	12	–

— patent US4179514A, “Ketoalkanesulfenyl and ketoalkanethiosulfenyl carbamates” (priority 1978, dated 1979)
